From paper PMC6237130, “Disarming the virulence arsenal of Pseudomonas aeruginosa by blocking two-component system signaling” (Chemical Science, 2018)
“Also recorded” adds a separate entry of the source.

What was measured:
[1] = biological target: T1, HK853 (Thermotoga maritima, UniProt Q9WZV7); assay: HK853 aggregation analysis (native-PAGE); details: for Compound-induced HK853 aggregation: native-PAGE, Fig. S3
Procedure: HK853 Aggregation Analysis
To analyze the propensity for compounds to cause aggregation, each was mixed at six […]
(5% (v/v) DMSO final). After incubating at RT for 30 min, 8.6 µL native-PAGE sample loading buffer was added, and 15 µL was loaded onto a 7.5% polyacrylamide gel. Proteins were resolved by native-PAGE and silver staining. Compound-induced aggregation was detected by the disappearance of the dimeric HK853 band. NH125 (Tocris Bioscience) was used as a positive […]

[2] = system: P. aeruginosa PA14; assay: Swarming assay; assay type: cell-based, Pseudomonas aeruginosa; details: 200 μM; for Swarming motility: after 5 days
Procedure: (§1) Swarming assays and quantification of rhamnolipids in swarm-plates
(§2) We followed the revised protocol developed by Trembley et al. for P. aeruginosa swarm assays.6 Plates consisted of modified M9 medium [20 mM NH4Cl; 12 mM Na2HPO4; 22 mM KH2PO4; 8.6 mM NaCl; 1 mM MgSO4; 1 mM CaCl2•2H2O; 11 mM dextrose; 0.5% casamino acids (Difco)] solidified with Bacto-agar (Difco). The M9 media without MgSO4 and CaCl2•2H2O was autoclaved, which were added after cooling the media ~60 °C. The pH was adjusted after autoclaving with HCl and NaOH (pH = 7.5). Then, a 1-in-100 dilution of filter-sterile stock containing 1 mg/mL Nile red (Sigma Aldrich) dissolved in 85% ethylene glycol and added (prepared the day of use to limit photoinactivation).7 Twenty mL of this media was poured into […]
(for the control experiments, same amount of DMSO was added). Plates were allowed to dry for 60 min, with the first 20 min under UV light to ensure plates were sterile following pH adjustment. P. aeruginosa PA14 strain was grown overnight (~16 h) in LB media at 37 °C and 200 RPM. Five µl of bacteria were spotted at the center of each plate, which were incubated at 30 °C in the dark and ~20% humidity. The plates were intermittently taken out for fluorescence scanning [scan settings: GE Typhoon Variable Mode Imager 9500, using 532-nm laser with DY-520XL (λex: 520 nm, λem: 664 nm)]. The scans were visualized and integrated density measurements of whole-plate fluorescence was measured using ImageJ software. Images of these plates were also taken with a Nikon D5200 DSLR camera, which were processed in Adobe Photoshop Lightroom 5 (Mac version) for phase-contrast.
Figure S9. Swarming motility of PA14 in the presence of Rilu-inhibitors at 200 µM after 5 days.
(§3) The top images are fluorescence scans for detecting Nile Red and the bottom images were taken

[3] = system: P. aeruginosa PA14; assay: Growth of PA14 cultures with inhibitors (OD620, CFU); assay type: cell-based, Pseudomonas aeruginosa; details: for Bacteriostatic and bactericidal properties in PA14 cultures: OD620 measurements and CFU studies, even at high concentrations (500 μM); for t = 9 h, OD620 / t = 24 h, OD620: Table S3, PA14 cultures for metabolomics, 200 µM, 37 °C
Procedure: The overnight culture was diluted 1:100 in fresh LB media. 4 mL of this culture was then put
into a 15 mL borosilicate glass tube, to which Rilu-inhibitors in DMSO were added to a final
concentration of 200 µM and 500 µM (for the control experiments, the same amount of DMSO
was added). These cultures were grown for 24 h at 37 ° C and 200 RPM, and their OD620 values
were measured using a spectrophotometer at various time points.
200 µM and 500 µM after 16 h at 37 °C.

[4] = system: P. aeruginosa PA14; assay: Biofilm assay (microtitre, crystal violet); assay type: cell-based, Pseudomonas aeruginosa; details: high concentrations, PA14, 24 h, relative to DMSO control
Procedure: (§4) P. aeruginosa PA14 strain was grown overnight (~16 h) in LB media at 37 °C and 200 RPM.
The overnight culture was diluted 1:100 in fresh LB media. 200 µL of this culture was then used to inoculate each well of a microtiter plate, to which Rilu-inhibitors were added in DMSO to final concentration of 200 µM or 500 µM (for the control experiments, same amount of DMSO was added). Eight wells per plate were used for each sample. These cultures were grown for 24 h at 37 °C without shaking. After growth, the planktonic cultures were carefully removed to a new microtitre plate to measure the OD620 values. The adhered cells were washed carefully three times with sterile PBS buffer, and then the cells were fixed with MeOH for 20 min. After removing the MeOH, the wells were allowed to dry for 10 min, followed by addition of 0.1% crystal violet. After 15 min of incubation, the stain was carefully removed without touching the rest of the plate. The excess stain was washed away 3 times from the wells with distilled water and the plate was allowed to dry for ~1 h. Finally, the adhered stain was redissolved in 30% acetic acid solution (for 1 h) and absorbance was measured at 595 nm. Assays were repeated in […]
Figure S8. (a) Different stages of biofilm formation. (b) Biofilm formation assessment. All values are plotted relative to a DMSO-treated control and normalized to the final cell density (OD620). […]

[5] = system: P. aeruginosa PA14; assay: LC-MS/MS analyses of metabolites in PA14 culture supernatant; assay type: cell-based, Pseudomonas aeruginosa; details: 200 μM, 9 h, 37 °C, relative to DMSO control
Procedure: LC-MS analyses of metabolites
The overnight culture was diluted 1:100 in fresh LB media. 4 mL of this culture was added into a 15 mL borosilicate glass tube, to which Rilu-inhibitors in DMSO were added to a final concentration of 200 µM (for the control experiments, same amount of DMSO was added).
These cultures were grown for 9 h (late exponential phase) or 24 h (stationary phase) at 37 °C and 200 RPM. The OD620 values were measured using a spectrophotometer. 1 mL of each culture was placed in a 1.7 mL Eppendorf tube, centrifuged at 5,000 g for 5 min and the supernatant was removed from the cell pellets. The supernatants were directly analyzed on an ESI-LC-MS/MS instrument for metabolites and the cell pellets (from 9 h cultures) were further used for RNA extraction in q-PCR experiments.
Injections of 2 µ L were separated on Zorbax Eclipse plus C18 column (2.1 mm x 50
MeOH:5% water with 0.1% formic acid). The metabolites were separated using an isocratic elution of 100% for 0-3 min, then a 3-17 min linear gradient to 100% B, and 17-20 min of 100% B at a constant flow rate of 0.4 ml/min. Samples were measured in positive ion mode and data was collected in triplicate. Data were analyzed using the Agilent MassHunter Quantitative Analysis suite. From the extracted ion chromatograms (EICs) of the respective metabolite signals, the peak areas were normalized to the OD620 growth values of the respective cultures. All of the peak areas of the treated samples were plotted by considering the DMSO-control sample to be 100% abundance.

[6] = system: Vero cells; design: method as in PMID 25531939; details: at <180 μM; cited from earlier work
[7] = system: P. aeruginosa PA14; assay: RT-qPCR of virulence and TCS genes in PA14; assay type: cell-based, Pseudomonas aeruginosa; details: PA14, 9 h, 200 and 500 μM
Procedure: RNA isolation, Reverse Transcriptase -qPCR experiments
as §4
The overnight culture was diluted 1:100 in fresh LB media. Four mL of this culture was then taken in a 15 mL borosilicate glass tube, to which Rilu-inhibitors in DMSO were added to a final concentration of 200 µM or 500 µM (for the control experiments, same amount of DMSO was added). These cultures were then grown for 9 h (late exponential phase) at 37 °C and 200 RPM, OD620 ~0.7. Total RNA was extracted from ~2 mL cell pellet using an RNAEasy Mini kit (Qiagen), according to the manufacturer’s instructions, including exogenous DNase treatment with Ambion Turbo-DNAse Kits. RNA integrity was confirmed by native gel electrophoresis and the quantities were measured using a nanophotometer. cDNA was generated using the DNA-free total RNA using (Applied Biosystems High Capacity cDNA Reverse Transcription Kits) random-primed reverse transcriptase reaction following the manufacturer’s protocol. The cDNA was used as template for quantitative PCR (BioRad MyiQ2 dual-color system) using the SYBR Green detection system (BioRad) on white 96-well PCR plates. Melt curves were obtained for every run, and any wells with multiple peaks were excluded from analysis. Signal was standardized to 2 housekeeping genes, recA, rpoD using the ∆∆C method equation:8 Relative […]
expression = 2(CT standard −C T sample), where CT (cycle time) was determined automatically by the Real Time iQ5 PCR software (BioRad). Primers (Integrated DNA Technologies) for RT-qPCR were designed using NCBI Primer-Blast software. Criteria for primer design were a […]
; primer size = 18 –22 bp; product size = 80–130 bp; product Tm
= 60– 90 °C. Samples were assayed in triplicate and statistical analyses was done with one-way ANOVA (Origin 9.1 software).
Table S5. List of primer pairs used in qPCR
Target gene Forward Reverse […]

[8] = biological target: T1, HK853; assay: Inhibition of HK853 activity (BODIPY-ATPγS competition, HK autophosphorylation); assay type: biochemical; details: for IC50 values for HK853 inhibitory activity: Fig. 1b and text, HK autophosphorylation; for IC50 values (µM) (95% confidence interval), n = 2: Table S1, HK853 inhibition
Procedure: Inhibition of HK853 Activity
Triton X-100 was premixed with reaction buffer to yield 0.1% (v/v) in final
25-µL reactions. In reaction buffer, 1 µM HK853 was preincubated with test compounds (final
1 µL BODIPY -ATPγS was added to bring
competitors and 5% DMSO. Samples were mixed and incubated in the dark at RT for 1 h before
quenching with 8.6 µL 4× SDS-PAGE sample loading buffer and loading 15 µL on a 10%
stacking gel. After SDS-PAGE, in-gel fluorescence detection elucidated HK853 activity, and
coomassie staining of the gels ensured even protein loading. Integrated density values of the
fluorescent gel bands were normalized as “% Activity” with respect to a control that contained
no inhibitor. Data were plotted in GraphPad Prism with relation to the log of molar inhibitor to
(control FP competition and activity assays), data were fit to a four-parameter logistic equation,
where y is the response, Bottom and Top are plateaus in the units of the y-axis, x is the log of the
molar concentration of inhibitor, HillSlope is the slope of the curve, and IC50 is the concentration
As a result, IC50 values were estimated by constraining the bottom of the curve to

[9] = system: P. aeruginosa PA14; assay: Quantification of rhamnolipids in swarm-plates (Nile red, ImageJ); assay type: cell-based, Pseudomonas aeruginosa; details: 200 μM, Nile red fluorescence, quantified with ImageJ
Procedure: as §1, §2
(for the control experiments, same amount of DMSO was added). Plates were allowed to dry for 60 min, with the first 20 min under UV light to ensure plates were sterile following pH adjustment. […] The plates were intermittently taken out for fluorescence scanning [scan settings: GE Typhoon Variable Mode Imager 9500, using 532-nm laser with DY-520XL (λex: 520 nm, λem: 664 nm)]. The scans were visualized and integrated density measurements of whole-plate fluorescence was measured using ImageJ software. […]
as §3

[10] = system: P. aeruginosa PA14; assay: Rapid attachment assay; assay type: cell-based, Pseudomonas aeruginosa; details: PA14, 60 min adhesion, relative to DMSO control
Procedure: as §4
The overnight cultures were washed and diluted in LB medium to an OD620 value of 1.0. 100 µL of this suspension was used to inoculate each well of a microtiter plate in presence of Rilu-inhibitors in DMSO at 200 µM or 500 µM (for the control experiments, same amount of DMSO was added). Eight wells per plate were used for each sample. Cells were allowed to adhere for 60 min at 37 °C and 200 RPM. After the planktonic cells were removed, staining with crystal violet was carried out, as described in the biofilm assay procedure. Assays were repeated in triplicate.

T1 sequence (Q9WZV7 entry or part of it): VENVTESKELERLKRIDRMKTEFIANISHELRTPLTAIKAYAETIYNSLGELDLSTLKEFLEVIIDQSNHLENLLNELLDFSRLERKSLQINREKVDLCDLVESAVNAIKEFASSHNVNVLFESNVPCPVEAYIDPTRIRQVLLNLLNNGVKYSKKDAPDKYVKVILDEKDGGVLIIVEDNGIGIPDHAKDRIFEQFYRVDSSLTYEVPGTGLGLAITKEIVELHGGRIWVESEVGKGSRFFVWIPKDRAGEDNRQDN

Compound | Swarming motility [2] | Compound-induced HK853 aggregation [1] | Bacteriostatic and bactericidal properties in PA14 cultures [3] | t = 9 h, OD620 [3] | t = 24 h, OD620 [3] | Effect on expression of virulence-associated genes (pqsR, fleQ and pilA) [7] | other results
CCCCCCCCCCCCCCCCn1cc[n+](Cc2ccccc2)c1C.[I-] [NH-125, reference compound] | – | – | – | – | – | – | Concentration causing disappearance of the protein dimer band (protein aggregation) ([1]; native-PAGE of HK853, positive aggregation control): ≥ 10 µM
Nc1nc2ccc(OC(F)(F)F)cc2s1 [Rilu-1, riluzole, reference compound] | moderate difference in swarming | non-aggregators | None of these compounds substantially slowed growth or killed the organism | – | – | – | –
Nc1nc2ccc(Oc3ccc4nc(N)sc4c3)cc2s1 [Rilu-2] | – | non-aggregators | None of these compounds substantially slowed growth or killed the organism | 0.851 | 1.60 | – | Reduction of biofilm mass [4]: 25%; Reduction of PCN [5]: ~85%; Reduction of PYO [5]: 70%; Cytotoxicity to Vero cells [6]: not cytotoxic
Nc1nc2ccc([N+](=O)[O-])cc2s1 [Rilu-4] | moderate difference in swarming | non-aggregators | None of these compounds substantially slowed growth or killed the organism | 0.842 | 1.65 | substantially downregulated | –
Cc1nc2ccc(N)cc2s1 [Rilu-7] | – | – | – | – | – | does not significantly affect | –
Nc1nc2c(Cl)cc(Cl)cc2s1 [Rilu-10] | – | – | – | – | – | – | IC50 values for HK853 inhibitory activity [8]: No inhibition; also recorded: inactive; IC50 values (µM) (95% confidence interval), n = 2 [8]: No Inhibition
Nc1nc2cc(Br)c(Br)cc2s1 [Rilu-11] | – | – | – | – | – | – | IC50 values for HK853 inhibitory activity [8]: No inhibition; also recorded: inactive; IC50 values (µM) (95% confidence interval), n = 2 [8]: No Inhibition
Nc1nc2cc3sc(N)nc3cc2s1 [Rilu-12] | major impairment in motility | non-aggregators | None of these compounds substantially slowed growth or killed the organism | 0.883 | 1.65 | substantially downregulated | Reduction of RL production on swarm agar plates [9]: 70%; Swarming motility, tendril formation ([2]; after 40 h): most prominently; Reduction in surface attachment [10]: 70%; Amount of PCA produced [5]: ~8%
